Data as given in the NIST ThermoML archive (doi:10.1016/j.fluid.2017.06.018).
Values joined by “and” are separate entries in the source; they are usually repeats but may differ in a detail not shown here. Equal entries are not always repeated. Numbers after ± are expanded uncertainties.

Experiments:
[1] = xn = mol fraction of the nth substance listed; details: 100 kPa, Liquid, x1 = 1; for viscosity: Falling or rolling sphere viscometry; for mass density: Vibrating tube method
[2] = refractive index (Na D-line) (dimensionless); xn = mol fraction of the nth substance listed; details: 100 kPa, Liquid, Standard Abbe refractometry, x1 = 1
[3] = refractive index (Na D-line) (dimensionless); details: 100 kPa, Liquid, Standard Abbe refractometry
[4] = 100 kPa, Liquid; for viscosity: Falling or rolling sphere viscometry; for mass density: Vibrating tube method

Row | viscosity ([1]; 298.15 K) [mPa·s] | mass density ([1]; 298.15 K) [kg/m3] | viscosity ([1]; 303.15 K) [mPa·s] | mass density ([1]; 303.15 K) [kg/m3] | viscosity ([1]; 308.15 K) [mPa·s] | mass density ([1]; 308.15 K) [kg/m3] | refractive index ([2]; 298.15 K) | refractive index ([2]; 303.15 K) | refractive index ([2]; 308.15 K) | refractive index ([3]; 298.15 K) | refractive index ([3]; 303.15 K) | refractive index ([3]; 308.15 K) | viscosity ([4]; 298.15 K) [mPa·s] | mass density ([4]; 298.15 K) [kg/m3] | viscosity ([4]; 303.15 K) [mPa·s] | mass density ([4]; 303.15 K) [kg/m3] | viscosity ([4]; 308.15 K) | mass density ([4]; 308.15 K) [kg/m3] | SMILES
1 |  |  |  |  |  |  |  |  |  | 1.4535 ± 0.0021 | 1.4519 ± 0.0021 | 1.4505 ± 0.0021 | 18.72 ± 0.44 | 1012.4 ± 2.2 | 15.15 ± 0.36 | 1008.4 ± 2.1 | 11.9 ± 0.28 mPa·s and 11.96 ± 0.28 mPa·s | 1004.5 ± 2.1 | NCCO [2-aminoethan-1-ol]
2 |  |  |  |  |  |  |  |  |  | 1.4822 ± 0.0021 | 1.4808 ± 0.0021 | 1.4793 ± 0.0021 | 5.63 ± 0.13 | 945.8 ± 2.1 | 4.5 ± 0.11 | 942.1 ± 2.1 | 3.85 ± 0.09 mPa·s | 937.8 ± 2.1 | NCCNCCN [di(2-aminoethyl)amine]

Continued, molecule first:

Row | SMILES | viscosity ([1]; 298.15 K) [mPa·s] | mass density ([1]; 298.15 K) [kg/m3] | viscosity ([1]; 303.15 K) [mPa·s] | mass density ([1]; 303.15 K) [kg/m3] | viscosity ([1]; 308.15 K) [mPa·s] | mass density ([1]; 308.15 K) [kg/m3] | refractive index ([2]; 298.15 K) | refractive index ([2]; 303.15 K) | refractive index ([2]; 308.15 K) | refractive index ([3]; 298.15 K) | refractive index ([3]; 303.15 K) | refractive index ([3]; 308.15 K) | viscosity ([4]; 298.15 K) [mPa·s] | mass density ([4]; 298.15 K) [kg/m3] | viscosity ([4]; 303.15 K) [mPa·s] | mass density ([4]; 303.15 K) [kg/m3] | viscosity ([4]; 308.15 K) | mass density ([4]; 308.15 K) [kg/m3]
3 | NCCO [2-aminoethan-1-ol] + NCCNCCN | 18.72 ± 0.44 | 1012.4 ± 2.2 | 15.15 ± 0.36 | 1008.4 ± 2.1 | 11.9 ± 0.28 | 1004.5 ± 2.1 | 1.4535 ± 0.0021 | 1.4519 ± 0.0021 | 1.4505 ± 0.0021 |  |  |  |  |  |  |  |  | 
4 | NCCNCCO [N-(2-aminoethyl)ethanolamine] |  |  |  |  |  |  |  |  |  | 1.4843 ± 0.002 | 1.4827 ± 0.002 | 1.4811 ± 0.002 | 98.62 ± 2.9 | 1025.8 ± 2 | 70.57 ± 1.6 | 1021.3 ± 2 | 53.11 ± 1.1 mPa·s | 1016.3 ± 2
5 | NCCO [2-aminoethan-1-ol] + NCCNCCO | 18.72 ± 0.44 | 1012.4 ± 2.2 | 15.15 ± 0.36 | 1008.4 ± 2.1 | 11.96 ± 0.28 | 1004.5 ± 2.1 | 1.4535 ± 0.0021 | 1.4519 ± 0.0021 | 1.4505 ± 0.0021 |  |  |  |  |  |  |  |  | 
